Results from PMC12737779, “Concurrent Assessment of Synthetic and Natural Compounds on the Proliferation of Toxoplasma gondii in In Vitro Models” (Tropical Medicine and Infectious Disease, 2025).

Assays:
[1] = test system: Vero cells; test: Cytotoxicity in Vero cells by Alamar Blue assay; format: cell-based, African green monkey; conditions: 24 h
Description: (§1) The Vero cell line was seeded in 96-well plates at approximately 20,000 cells per well until approximately 100% confluence was reached. […] All compounds were evaluated at elevated concentrations, diluted in 1% DMSO, to determine the maximum concentration at which they could remain in solution for experimental purposes. It was observed that most compounds were not fully soluble at 320 µM. […] Consequently, all further experiments were initiated from this concentration. […] Four hours later, fluorescence was measured using a BioTek Synergy HTX plate reader at 530/25 nm excitation and 590/25 nm emission. […] A color change in the growth control well to pink indicated proper cell growth, and no color change in the sterile control well indicated the absence of contaminants. The normalized viability percentages (Y-values) of viable host cells and viable T. gondii GFP RH tachyzoites were calculated from the mean ± standard deviation for each concentration evaluated in triplicate. The concentration values (X-axis) were subjected to logarithmic transformation to fit the data to a sigmoidal curve. The half-maximal cytotoxic concentration (CC50) was estimated as the interpolated concentration value on the X-axis corresponding to the response midway between the fitted top and bottom plateaus of the curve. Similarly, the half-maximal inhibitory concentration (IC50) was determined as the concentration at which the response was halfway between the top and the bottom plateaus. Data analysis and visualization were conducted using GraphPad Prism version 8.4.3 (GraphPad Software, San Diego, CA, USA). The selectivity index, also known as the Therapeutic Index, was calculated using the formula: SI = CC50/IC50.

[2] = test system: T. gondii RH GFP tachyzoites; test: T. gondii RH GFP tachyzoite viability assay, 72 h continuous exposure; format: cell-based, Toxoplasma gondii; conditions: for IC50: 72 h continuous exposure, GFP tachyzoite viability in Vero cells; for SI: CC50/IC50, 72 h continuous exposure
Description: Approximately 10,000 tachyzoites of the T. gondii RH GFP strain were quantified using a hemocytometer and subsequently inoculated into Vero cells at full confluence per well in a 96-well plate using a medium conducive to parasite maintenance. Following our laboratory protocols and the methodologies outlined in previous studies, we routinely utilize an inoculum of 10,000 parasites for the Toxoplasma gondii RH-GFP tachyzoite viability assay, which is conducted over a 72 h duration. This parasite density ensures reliable detection of tachyzoite growth and viability while minimizing the likelihood of detachment or any degree of disruption to the host cell monolayer. Concurrently, derivatives of pyrazoline, pyrazole, and thiazolidinone nucleus compounds were introduced at […], with 1:2 dilutions commencing at 160 μM and decreasing to a minimum concentration of 1.25 μM in triplicate. The controls employed in this experiment included non-infected cells (NC), 10 μM pyrimethamine (Pyr), 1% dimethyl sulfoxide (DMSO), and infected cells without treatment (IC). Seventy-two hours post-infection, each well in the 96-well plate was examined using a 10× objective on the EVOS FL Color Imaging System with the GFP fluorescent light cube, and images were captured approximately at the center of each well. The parasites that glowed green were considered viable, and the percentage of tachyzoite viability was compared with that of the untreated parasites. Subsequently, images were recorded, contrast was adjusted, and a semiquantitative digital analysis was conducted using ImageJ v1.54d and the triangle auto-threshold method to determine the number of viable GFP fluorescent tachyzoites per image, as previously described. The percentage of viable parasites was calculated using the formula: Fluorescence of the sample with treatment URF × 100/fluorescence of the control without treatment, where URF = unit relatives of fluorescence calculated with the formula: (sample fluorescence/fluorescence in blank well) × 100.
(§2) The normalized viability percentages (Y-values) of viable host cells and viable T. gondii GFP RH tachyzoites were calculated from the mean ± standard deviation for each concentration evaluated in triplicate. The concentration values (X-axis) were subjected to logarithmic transformation to fit the data to a sigmoidal curve. The half-maximal cytotoxic concentration (CC50) was estimated as the interpolated concentration value on the X-axis corresponding to the response midway between the fitted top and bottom plateaus of the curve. Similarly, the half-maximal inhibitory concentration (IC50) was determined as the concentration at which the response was halfway between the top and the bottom plateaus. Data analysis and visualization were conducted using GraphPad Prism version 8.4.3 (GraphPad Software, San Diego, CA, USA). The selectivity index, also known as the Therapeutic Index, was calculated using the formula: SI = CC50/IC50.

[3] = test system: T. gondii RH GFP tachyzoites; test: T. gondii RH GFP tachyzoite viability following 24 h pretreatment of host cells; format: cell-based, Toxoplasma gondii; conditions: for Host Cell Pre-Treatment SI: CC50/IC50, host cell pre-treatment; for IC50: Vero cells pretreated 24 h, read 72 h post-infection, read-out: Host Cell Pre-Treatment IC50
Description: Subsequently, 10,000 T. gondii RH GFP tachyzoites were introduced into each well. The experimental controls included non-infected cells (NC), 10 μM pyrimethamine (Pyr), 1% dimethyl sulfoxide (DMSO), and infected cells without treatment (IC). After 24 h of host cell treatment, the medium was replaced with a compound-free medium for parasite maintenance. Seventy-two hours post-infection, each well of the 96-well plate was examined using a 10× objective on an Evos FL Auto Cell Imaging System microscope (Life Technologies, Carlsbad, CA, USA). A semiquantitative digital analysis was conducted using ImageJ v1.54d and the triangle auto-threshold method to quantify the number of viable GFP fluorescent tachyzoites per image, as previously described.
as §2

[4] = test system: T. gondii RH GFP tachyzoites; test: T. gondii RH GFP tachyzoite viability following 3 h pretreatment of parasites; format: cell-based, Toxoplasma gondii; conditions: for Tachyzoite Pre-Treatment SI: CC50/IC50, tachyzoite pre-treatment; for IC50: read-out: Tachyzoite Pre-Treatment IC50
Description: Following treatment, tachyzoites were centrifuged at 712× g for 10 min, and the supernatant was discarded. Fresh medium devoid of compounds was then added to resuspend the parasites. Subsequently, 10,000 pretreated T. gondii RH GFP tachyzoites were introduced into each well of a 96-well plate containing Vero cells at 100% confluence. Seventy-two hours post-infection, each well of the 96-well plate was examined using a 10× objective on an EVOS microscope. Semiquantitative digital analysis was performed using ImageJ v1.54d, employing the triangle auto-threshold method to quantify the number of viable GFP fluorescent tachyzoites per image, as previously described.
as §2

[5] = Cytotoxicity in Vero cells by Alamar Blue assay; format: cell-based, African green monkey; conditions: African green monkey
Description: as §1

[6] = tachyzoites pretreated 3 h, read 72 h post-infection
[7] = Toxoplasma gondii, tachyzoites pretreated 3 h, read 72 h post-infection

Structure (SMILES) | CC50 [1] | IC50 [2] | SI [2] | Host Cell Pre-Treatment SI [3] | IC50 [3] | Tachyzoite Pre-Treatment SI [4] | IC50 [4, 6] | CC50 at 24 h [5] | IC50 ([2]; Toxoplasma gondii) | IC50 ([3]; Toxoplasma gondii) | IC50 [4, 7] | IC50 ([4]; Toxoplasma gondii)
COc1cc(C2=NNC(c3ccc(F)cc3)C2)ccc1O (stereo not shown) [Compound 1] | 132 µM | 6.7 µM | 19.6 | 17.5 | 7.5 µM | 5.6 | 23.4 µM |  |  |  |  | 
COc1cc(C2=NNC(c3ccc(Cl)cc3)C2)ccc1O (stereo not shown) [Compound 2] | 123 µM |  | 73.3 | 16.4 | 7.5 µM | 18.6 | 6.6 µM |  |  |  |  | 
COc1ccc(C2CC(c3ccc(O)c(OC)c3)=NN2)cc1 (stereo not shown) [Compound 3] | > 160 µM | 18.1 µM | >8.3 |  |  |  |  |  |  |  |  | 
COc1cc(C2=NNC(c3ccc4c(c3)OCO4)C2)ccc1O (stereo not shown) [Compound 4] | 154 µM |  | 42.6 | 28.9 | 5.3 µM | 4.8 | 31.6 µM |  |  |  |  | 
CC(C)(C)n1nc(-c2c[nH]c3ccccc23)c(C#N)c1-c1c(Cl)cccc1Cl [Compound 5] | > 160 µM | 14 µM | >11.4 |  |  |  |  |  |  |  |  | 
CC(C)(C)n1nc(-c2c[nH]c3ccccc23)c(C#N)c1-c1ccc(Br)cc1 [Compound 8] | > 160 µM | 21 µM | >7.6 |  |  |  |  |  |  |  |  | 
CC(=NO)C(C)=NN=C1NC(=O)/C(=C/c2ccccc2O)S1 [Compound 9] |  |  | >25.9 | >14.9 |  | >164.9 |  | > 160 µM | 6.1 µM | 10.7 µM | 0.9 µM | 
CC(=NO)C(C)=NN=C1NC(=O)C(=Cc2ccc(O)cc2)S1 [Compound 10] | 61.2 µM | 5.7 µM | 10.6 | 3.9 | 15.4 µM | 12.4 | 4.9 µM |  |  |  |  | 
CC(=N/O)/C(C)=N\N=C1/NC(=O)/C(=C/c2ccc(C#N)cc2)S1 [Compound 11] |  |  | 14.5 | 2.3 |  | 1.8 |  | 53.2 µM | 3.6 µM | 22.5 µM | 29.5 µM | 
COc1ccc(C=C2SC(=NN=C(C)C(C)=NO)NC2=O)cc1 [Compound 12] | 40.3 µM | 3.9 µM | 10.2 | 3.8 | 10.5 µM | 6.9 | 5.8 µM |  |  |  |  | 
CC(=N/O)/C(C)=N\N=C1/NC(=O)/C(=C/c2ccc(O)c(O)c2)S1 [Compound 13] | > 160 µM | 8.8 µM | >18.1 | >0.6 |  | >8.0 | 19.8 µM |  |  |  |  | 
CC(=N/O)/C(C)=N\N=C1/NC(=O)/C(=C/c2ccc(Cl)cc2)S1 [Compound 14] | > 160 µM | 142 µM | >1.1 |  |  |  |  |  |  |  |  | 
CC(=N/O)/C(C)=N\N=C1\NC(=O)/C(=C/c2cc3ccccc3[nH]c2=O)S1 [Compound 15] |  |  | >16.8 | >2.9 |  | >39.7 |  | > 160 µM | 9.5 µM | 54.4 µM | 4 µM | 
CCc1nc(N)nc(N)c1-c1ccc(Cl)cc1 [Pyrimethamine, pyrimethamine, reference compound] |  |  | >666 | >190 |  | >32.4 |  | > 200 µM | 0.3 µM | 1 µM |  | 6.1 µM
